From patent US7371811B2, “Schizophrenia associated genes, proteins and biallelic markers” (Serono Genetics Institute S.A., priority 1998, dated 2008)

Tested on: Male C57BL6 adult mice
Test: Effect of sbg1 peptide on behavior of mice (locomotor and stereotypy movements)
Type: in vivo
Settings: 50 μg peptide intraperitoneally in 200 μl saline, n=4/peptide, FIG. 18
Description: In one example, the present inventors have tested sbg1 peptides by injection into mice. An sbg1 peptide comprising amino acid positions 124 to 153 of SEQ ID No 34 was injected peritoneally into adult mice as described herein in Example 7. […] Because the onset of stereotypy was variable, data are presented as the average of stereotypy for observations over the entire time period.
Animals: Male C57BL6 adult mice (approximately 6 weeks old)
Peptides: sbg1 peptide: • NH2-[…]-COOH (SEQ ID NO:232) • Control 1: NH2-[…]-COOH (SEQ ID NO:233) • Control 2: NH2-MHMKTILGPRLGLGE-COOH (SEQ ID NO:234)
Protocol: • 1. Inject mice intraperitoneally with 50 μg peptide in 200 μl sterile physiological saline (n=4/peptide). • 2. Place mice in clean empty cages containing no litter, and only a small test tube rack. The cages are covered with a plastic sheet to enable taking photographs and video-tracking. • 3. Observe behavior for one minute from t=5 min up to t=45 min, as indicated. Any locomoter or stereotypy movements were recorded as positive over 1 min intervals. Locomoter movements include climbing, and rearing while stereotypy movements include grooming and scratching. At the end of the experiment, the number of movements were added up for each animal.
Results: • 1. […]

“NH2-QPLERMWTCNYNQQKDQSCNHKEITSTKAE-COOH (H-QPLERMWTCNYNQQKDQSCNHKEITSTKAE-OH; cysteine pairing not given here; listed as Homo sapiens) [sbg1 peptide]” was tested, and the “frequency of movements (locomotor activity) over the time course of the experiment” value (average movements at 5, 10, 15 min compared with 30, 35, 40, 45 min) was “decrease in the frequency of their movements” and the “stereotypy (grooming and scratching movements)” value (observed t=5 to 45 min, effect most prominent during the last period) was “increased stereotypy”.
